The values below come from ChEMBL document CHEMBL1145308 (Bioorg Med Chem Lett, 2006).

In general, microsomal CLint refers to a measure of how fast metabolising enzymes remove a compound, apart from limits set by blood flow. The EC50 is the midpoint of the concentration-response curve. Low readings indicate a more potent agent, high ones a less potent agent. A word on the bioavailability: it is dose-corrected exposure relative to a reference, in per cent. A higher bioavailability goes with much systemic uptake. As usually defined, the clearance is a measure of how efficiently the substance is removed, as volume per time. In general, half-life refers to how long it takes for the measured level to halve. A higher half-life goes with slow loss. One may read the pKa as the pH at which an ionisable group is half protonated. As usually defined, the IC50 is the concentration that inhibits the measured activity by half. Lower therefore signals greater potency.

Series [1] can be described thus: in vitro. As to conditions: mouse, microsomes, Max Achievable Bioavailability.
Description: Maximum achievable bioavailability in mouse microsome
A short description of series [2]: in vitro. Particulars: human, microsomes, CL.
Description: Intrinsic clearance in human microsome
Series [3] can be described thus: in vitro. As to conditions: mouse, microsomes, CL.
Description: Intrinsic clearance in mouse microsome
Series [4] in a line: in vitro. Particulars: human, microsomes, Max Achievable Bioavailability.
Description: Maximum achievable bioavailability in human microsome
Series [5] addresses T1, Sodium- and chloride-dependent glycine transporter 2 (Homo sapiens, UniProt Q9Y345).
T1 sequence (Q9Y345 whole entry): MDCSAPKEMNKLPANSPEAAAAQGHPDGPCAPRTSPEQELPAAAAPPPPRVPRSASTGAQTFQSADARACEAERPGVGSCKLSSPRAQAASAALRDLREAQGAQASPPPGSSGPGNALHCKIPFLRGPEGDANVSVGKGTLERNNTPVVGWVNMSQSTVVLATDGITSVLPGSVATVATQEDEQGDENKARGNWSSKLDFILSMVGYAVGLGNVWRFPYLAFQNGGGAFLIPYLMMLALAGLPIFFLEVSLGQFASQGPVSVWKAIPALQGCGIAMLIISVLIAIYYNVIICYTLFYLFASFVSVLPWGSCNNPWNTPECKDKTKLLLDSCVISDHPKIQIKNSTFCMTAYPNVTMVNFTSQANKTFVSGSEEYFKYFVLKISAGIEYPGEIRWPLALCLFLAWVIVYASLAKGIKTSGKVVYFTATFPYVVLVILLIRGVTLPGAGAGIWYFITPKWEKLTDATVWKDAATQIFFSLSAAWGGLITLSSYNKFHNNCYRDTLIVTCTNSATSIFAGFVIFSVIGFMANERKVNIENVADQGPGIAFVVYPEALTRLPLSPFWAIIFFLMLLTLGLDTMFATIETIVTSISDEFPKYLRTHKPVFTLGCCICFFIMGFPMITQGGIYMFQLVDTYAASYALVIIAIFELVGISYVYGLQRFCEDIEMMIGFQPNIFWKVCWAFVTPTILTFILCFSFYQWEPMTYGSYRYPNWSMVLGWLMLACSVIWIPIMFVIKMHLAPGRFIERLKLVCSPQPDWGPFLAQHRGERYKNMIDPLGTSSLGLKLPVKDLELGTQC
As to the kind of experiment: (§1) Inhibition of [3H]glycine uptake at GlyT2.

Series [6] addresses T2, Sodium- and chloride-dependent glycine transporter 1 (Homo sapiens, UniProt P48067).
T2 sequence (P48067 whole entry): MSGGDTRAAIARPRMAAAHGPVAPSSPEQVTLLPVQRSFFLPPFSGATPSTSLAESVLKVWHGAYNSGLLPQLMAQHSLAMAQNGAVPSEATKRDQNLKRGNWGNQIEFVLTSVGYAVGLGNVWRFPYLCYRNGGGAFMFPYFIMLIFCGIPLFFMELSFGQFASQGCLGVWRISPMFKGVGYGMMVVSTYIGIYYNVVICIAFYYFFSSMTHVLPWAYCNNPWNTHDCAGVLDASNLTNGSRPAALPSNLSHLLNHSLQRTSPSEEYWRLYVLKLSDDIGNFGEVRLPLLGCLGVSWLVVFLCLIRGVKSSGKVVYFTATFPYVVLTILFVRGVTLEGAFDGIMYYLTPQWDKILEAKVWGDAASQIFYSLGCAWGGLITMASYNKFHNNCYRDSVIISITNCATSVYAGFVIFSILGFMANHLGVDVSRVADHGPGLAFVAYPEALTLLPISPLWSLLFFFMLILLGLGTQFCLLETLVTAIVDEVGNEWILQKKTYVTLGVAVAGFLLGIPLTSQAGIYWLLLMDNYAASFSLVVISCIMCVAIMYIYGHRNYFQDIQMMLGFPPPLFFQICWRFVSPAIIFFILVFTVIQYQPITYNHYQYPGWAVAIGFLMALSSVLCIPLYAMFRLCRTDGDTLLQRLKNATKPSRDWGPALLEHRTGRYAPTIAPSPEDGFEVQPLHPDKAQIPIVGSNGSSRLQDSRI
As to the kind of experiment: (§2) Inhibition of [3H]glycine uptake at GlyT1.

Series [7] can be described thus: Volume of distribution in mouse. Type of series: ADME, organism-based. Particulars: in vivo, read-out: Vss.
A short description of series [8]: Oral bioavailability in mouse. Type of series: ADME, organism-based. As to conditions: in vivo.
Series [9] in a line: Clearance in mouse. Type of series: ADME, organism-based. Particulars: in vivo.
The nature of series [10]: Half life in mouse. Type of series: ADME, organism-based. As to conditions: in vivo.
Series [11] can be described thus: Ratio of drug level in brain against plasma in mouse. Type of series: ADME, organism-based. As to conditions: read-out: BPR.
Series [12] is described as follows: Dissociation constant, pKa of the compound. Type of series: physicochemical.
Series [13] addresses Voltage-gated inwardly rectifying potassium channel KCNH2 (Homo sapiens, UniProt Q12809).
Description: Inhibition of hERG potassium channel expressed in CHO cells by whole cell patch clamp method
Series [14] addresses T3, Sodium- and chloride-dependent glycine transporter 2 (Homo sapiens) (UniProt Q9Y345).
T3 sequence (whole entry): T1 sequence (Q9Y345 whole entry)
The description is as §1.

The target of series [15] is T4, Sodium- and chloride-dependent glycine transporter 1 (Homo sapiens) (UniProt P48067).
T4 sequence (whole entry): T2 sequence (P48067 whole entry)
Described as §2.

Voltage-gated inwardly rectifying potassium channel KCNH2, sequence (Q12809 whole entry): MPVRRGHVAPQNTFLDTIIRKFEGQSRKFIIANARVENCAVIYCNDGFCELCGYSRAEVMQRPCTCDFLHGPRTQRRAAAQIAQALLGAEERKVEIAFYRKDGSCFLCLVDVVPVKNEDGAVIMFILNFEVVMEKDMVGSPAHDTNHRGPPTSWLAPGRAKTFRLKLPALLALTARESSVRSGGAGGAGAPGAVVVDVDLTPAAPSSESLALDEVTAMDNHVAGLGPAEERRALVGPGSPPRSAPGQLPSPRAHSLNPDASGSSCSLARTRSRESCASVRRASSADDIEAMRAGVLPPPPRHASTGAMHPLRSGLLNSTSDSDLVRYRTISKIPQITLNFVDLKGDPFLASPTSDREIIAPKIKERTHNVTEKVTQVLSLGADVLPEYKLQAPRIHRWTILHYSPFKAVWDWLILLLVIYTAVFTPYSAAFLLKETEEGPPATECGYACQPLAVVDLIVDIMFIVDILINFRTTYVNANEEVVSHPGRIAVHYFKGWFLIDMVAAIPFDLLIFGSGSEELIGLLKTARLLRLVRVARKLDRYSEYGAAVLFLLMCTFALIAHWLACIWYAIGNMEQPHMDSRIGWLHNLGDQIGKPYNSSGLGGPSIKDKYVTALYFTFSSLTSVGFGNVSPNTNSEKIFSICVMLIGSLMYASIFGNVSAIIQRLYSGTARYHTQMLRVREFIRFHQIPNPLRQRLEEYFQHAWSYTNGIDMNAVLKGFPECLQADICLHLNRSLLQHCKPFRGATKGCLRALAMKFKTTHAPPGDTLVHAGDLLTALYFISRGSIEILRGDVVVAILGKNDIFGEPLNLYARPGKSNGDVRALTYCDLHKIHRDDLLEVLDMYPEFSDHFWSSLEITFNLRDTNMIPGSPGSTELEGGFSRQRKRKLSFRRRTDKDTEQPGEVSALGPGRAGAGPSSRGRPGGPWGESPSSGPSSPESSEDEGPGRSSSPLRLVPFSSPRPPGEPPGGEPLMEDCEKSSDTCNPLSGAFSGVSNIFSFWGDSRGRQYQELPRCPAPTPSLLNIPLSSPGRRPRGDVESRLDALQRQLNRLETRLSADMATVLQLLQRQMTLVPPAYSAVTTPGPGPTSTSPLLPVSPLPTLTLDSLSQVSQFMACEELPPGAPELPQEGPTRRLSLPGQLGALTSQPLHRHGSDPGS

Turning to `CCCC1CNC(=O)C12CCN(C1(c3ccc(F)cc3)CCCCC1)CC2` (racemic), the Fh in series [1] turned out to be 57%; in series [4] it was 53%. Further, the microsomal CLint in series [2] came to 14 µL/min/mg; in series [3], 24 µL/min/mg.
As for `F.O=C1NCC(c2ccc(F)cc2)C12CCN(C1(c3ccc(F)cc3)CCCCC1)CC2` (single isomer, unassigned; diastereomer 1), the figures for the Fh in series [1] and in [4] were 46% and 67%, respectively. The compound also registered an EC50 in series [5] greater than 30000 nM.
On to `Cl.O=C1NCC(c2ccc(F)cc2)C12CCN(C1(c3cccs3)CCCCC1)CC2` (racemic), for which the Fh in series [1] came out at 28%; in series [4], 64%. Moreover, the values for the intrinsic metabolic clearance (microsomal CLint) in series [2] and in [3] were 9 µL/min/mg and 80 µL/min/mg, respectively.
On to `O=C1NCN(c2ccccc2)C12CCN(C1(c3ccccc3)CCCCC1)CC2`, for which the Fh came to 6% in [1] and 16% in series [4]. In addition, the microsomal CLint amounted to 82 µL/min/mg in series [2] and 470 µL/min/mg in [3]. Moreover, the EC50 in series [5] was greater than 30000 nM.
On to `Cl.O=C1NCC(c2ccc(F)cc2)C12CCN(C1(c3ccsc3)CCCCC1)CC2` (racemic), for which the Fh in series [1] turned out to be 45%; in series [4], 78%. Further, the microsomal CLint was 4 µL/min/mg in series [2] and 39 µL/min/mg in [3]. It took 99 nM to reach a half-maximal effect in series [6] (EC50).
Turning to `O=C1NCC(c2ccc(F)cc2)C12CCN(C1(c3ccc(F)cc3)CCCCC1)CC2` (stereo in doubt), the Vd in series [7] was found to be 7.6 L/kg. Further, the Fh in [1] was found to be 98%; in series [4] it was 84%. This compound had a bioavailability in series [8] of 60%. Also, the clearance in series [9] is 35 mL/min/kg. Also, the EC50 in series [5] was greater than 30000 nM. This compound gave a half-life in series [10] of 2.8 h. For the same compound, the Kp in series [11] worked out at 3. Besides, the pKa in series [12] came to 8.75.
`O=C1NCC(c2ccccc2)C12CCN(C1(c3ccccc3)CCCOC1)CC2` (stereo not drawn) had a pKa in [12] of 7.1. Moreover, in series [6], the EC50 was 1420 nM. Besides, the IC50 in [13] was greater than 11000 nM.
Consider `O=C1NCC(c2ccccc2)C12CCN(C1(c3ccccc3)CCOCC1)CC2` (stereo not drawn), for which, in [12], the pKa amounted to 7.71.
As to `O=C1NCC(c2ccc(F)cc2)C12CCN(C1(c3ccc(F)cc3)CCCCCC1)CC2` (stereo not drawn), the Activity in series [14] is greater than 30 µM; in series [15] it was 245 nM.
In the case of `Cc1ccc(C2(N3CCC4(CC3)C(=O)NCC4c3ccccc3)CCCCC2)cc1` (single isomer, unassigned; diastereomer 2), the EC50 in [5] is greater than 30000 nM; in series [6], 480 nM.
